Starred links: 1 amine or outer side, 2 acyl side, 3 side chain; linkers in the order of their positions; H or OH if unused. Positions of bridges follow the written chain, without caps; N, C: chain ends. Non-standard residues stand in square brackets, D forms with d. Residues, ends and D or L forms follow the SMILES beside them. *: point of attachment. hPhe(3-Cl-4-CF3) = N[C@@H](CCc1ccc(C(F)(F)F)c(Cl)c1)C(=O)O; hPhe(3-F,4-CF3) = N[C@@H](CCc1ccc(C(F)(F)F)c(F)c1)C(=O)O; NMePhe(4-CF3) = CN[C@@H](Cc1ccc(C(F)(F)F)cc1)C(=O)O; 3Oxa8azabicyclo(3.2.1)octane = C1CC2COCC1N2*; NMePhe(4-F) = CN[C@@H](Cc1ccc(F)cc1)C(=O)O; NMedβ3hAla = C[C@H](CC(=O)[*:2])N(C)[*:1]; NMeGly(cPent) = CN[C@H](C(=O)O)C1CCCC1; NMeCha = CN[C@@H](CC1CCCCC1)C(=O)O; NMeChg = CN[C@H](C(=O)O)C1CCCCC1; NMeI = CC[C@H](C)[C@H](NC)C(=O)O; NMeD = CN[C@@H](CC(=O)O)C(=O)O; NMeL = CN[C@@H](CC(C)C)C(=O)O; NMehSer = CN[C@@H](CCO)C(=O)O; NMeV = CN[C@H](C(=O)O)C(C)C; Trifluoroethyl = FC(F)(F)C*; NMeS = CN[C@@H](CO)C(=O)O; NMeA = CN[C@@H](C)C(=O)O; NMeAib = CNC(C)(C)C(=O)O; Piperidide = C1CCN(*)CC1; Ac5c = NC1(C(=O)O)CCCC1; Aze = O=C(O)[C@@H]1CCN1; Sar = CNCC(=O)O; Propyl = CCC*
Tested on: Human pancreatic cancer cell line AsPC-1
Test: Measurement of AsPC-1 cell growth inhibition (AsPC-1 CGI)
Type: cell-based
Details: 96 h
Experimental: Measurement of AsPC-1 Cell Growth Inhibition (AsPC-1 CGI)
Test compounds were serially diluted with dimethyl sulfoxide, and 200 nL was then dispensed to a U-bottom 96-well plate using Labcyte Echo. Human pancreatic cancer cell line AsPC-1 was suspended in RPMI-1640 medium supplemented with 15% fetal bovine serum to prepare a cell suspension at 1000 cells/100 μL. The cell suspension was dispensed to a plate containing a test compound at 100 μL per well and incubated at 37° C. in a 5% carbon dioxide gas incubator. 96 hours later, 80 μL of CellTiter-Glo (Promega) was added to each well and […] was measured.

Structure (SMILES) | IC50 [nM]
CC[C@H](C)[C@@H]1NC(=O)[C@H](C)N(C)C(=O)C[C@@H](C)N(C)C(=O)[C@H](C(C)C)N(C)C(=O)C(C)(C)N(C)C(=O)[C@@H]2CCCN2C(=O)[C@H](CCc2ccc(C(F)(F)F)c(Cl)c2)NC(=O)CN(C)C(=O)[C@H](CC2CCCCC2)N(C)C(=O)[C@@H]2CCN2C(=O)[C@H](C)N(C)C1=O [Compound 341] (cyclo([Aze][NMeCha][Sar][hPhe(3-Cl-4-CF3)]P[NMeAib][NMeV][NMedβ3hAla][NMeA]I[NMeA])) | 100 to 500
CC[C@H](C)[C@@H]1NC(=O)[C@H](CC(C)C)N(C)C(=O)C[C@@H](C)N(C)C(=O)[C@H](C2CCCCC2)N(C)C(=O)C2(CCCC2)NC(=O)[C@@H]2CCCN2C(=O)[C@H](CCc2ccc(C(F)(F)F)c(Cl)c2)NC(=O)CN(C)C(=O)[C@H](Cc2ccc(C(F)(F)F)cc2)N(C)C(=O)[C@@H]2CCN2C(=O)[C@H](C)N(C)C1=O [Compound 348] (cyclo([Ac5c][NMeChg][NMedβ3hAla][NMeL]I[NMeA][Aze][NMePhe(4-CF3)][Sar][hPhe(3-Cl-4-CF3)]P)) | 100 to 500
CC[C@H](C)[C@@H]1NC(=O)[C@H](CC(C)C)NC(=O)C[C@@H](C(=O)N2CCCCC2)N(C)C(=O)[C@H](C2CCCCC2)N(C)C(=O)C2(CCCC2)NC(=O)[C@@H]2CCCN2C(=O)[C@H](CCc2ccc(C(F)(F)F)c(Cl)c2)NC(=O)CN(C)C(=O)[C@H](CC2CCCCC2)N(C)C(=O)CN(C)C(=O)CN(C)C1=O [Compound 356] (LI[Sar][Sar][NMeCha][Sar][hPhe(3-Cl-4-CF3)]P[Ac5c][NMeChg][NMeD]-Piperidide; lactam N-11) | 100 to 500
CCCOC[C@H]1C(=O)N(C)CC(=O)N[C@@H](CCc2ccc(C(F)(F)F)c(Cl)c2)C(=O)N2CCC[C@H]2C(=O)NC2(CCCC2)C(=O)N(C)[C@@H](C2CCCC2)C(=O)N(C)[C@H](C)CC(=O)N(C)[C@@H](CC(C)C)C(=O)N[C@@H]([C@@H](C)CC)C(=O)N(C)[C@@H](C)C(=O)N2CC[C@H]2C(=O)N1C [Compound 366] (cyclo([Ac5c][NMeGly(cPent)][NMedβ3hAla][NMeL]I[NMeA][Aze][NMeS](Propyl)[Sar][hPhe(3-Cl-4-CF3)]P)) | 20 to 50
CC[C@H](C)[C@@H]1NC(=O)[C@H](CC(C)C)N(C)C(=O)C[C@@H](C)N(C)C(=O)[C@H](C2CCCC2)N(C)C(=O)C2(CCCC2)NC(=O)[C@@H]2CCCN2C(=O)[C@H](CCc2ccc(C(F)(F)F)c(F)c2)NC(=O)CN(C)C(=O)[C@H](C2CCCC2)N(C)C(=O)[C@@H]2CCN2C(=O)[C@H](C)N(C)C1=O [Compound 386] (cyclo([Ac5c][NMeGly(cPent)][NMedβ3hAla][NMeL]I[NMeA][Aze][NMeGly(cPent)][Sar][hPhe(3-F,4-CF3)]P)) | 20 to 50
CC[C@H](C)[C@@H]1NC(=O)[C@H](COCC(F)(F)F)N(C)C(=O)C[C@@H](C(=O)N2CCCCC2)N(C)C(=O)[C@H](C(C)C)N(C)C(=O)C2(CCCC2)NC(=O)[C@@H]2CCCN2C(=O)[C@H](CCc2ccc(C(F)(F)F)c(Cl)c2)NC(=O)CN(C)C(=O)[C@H](CC2CCCCC2)N(C)C(=O)[C@@H]2CCN2C(=O)[C@H](C)N(C)C1=O [Compound 387] ([NMeS](Trifluoroethyl)I[NMeA][Aze][NMeCha][Sar][hPhe(3-Cl-4-CF3)]P[Ac5c][NMeV][NMeD]-Piperidide; lactam N-11) | 100 to 500
CC[C@H](C)[C@@H]1NC(=O)[C@H](CC(C)C)N(C)C(=O)C[C@@H](C(=O)N2CCCCC2)N(C)C(=O)[C@H](C2CCCC2)N(C)C(=O)C2(CCCC2)NC(=O)[C@@H]2CCCN2C(=O)[C@H](CCc2ccc(C(F)(F)F)c(Cl)c2)NC(=O)CN(C)C(=O)[C@H](Cc2ccc(F)cc2)N(C)C(=O)[C@@H]2CCN2C(=O)[C@H](C)N(C)C1=O [Compound 388] ([NMeL]I[NMeA][Aze][NMePhe(4-F)][Sar][hPhe(3-Cl-4-CF3)]P[Ac5c][NMeGly(cPent)][NMeD]-Piperidide; lactam N-11) | 20 to 50
CC[C@H](C)[C@@H]1NC(=O)[C@H](CCOC)N(C)C(=O)C[C@@H](C(=O)N2CCCCC2)N(C)C(=O)[C@H](C(C)C)N(C)C(=O)C2(CCCC2)NC(=O)[C@@H]2CCCN2C(=O)[C@H](CCc2ccc(C(F)(F)F)c(Cl)c2)NC(=O)CN(C)C(=O)[C@H](CC2CCCCC2)N(C)C(=O)[C@@H]2CCN2C(=O)[C@H](C)N(C)C1=O [Compound 397] ([NMehSer](Me)I[NMeA][Aze][NMeCha][Sar][hPhe(3-Cl-4-CF3)]P[Ac5c][NMeV][NMeD]-Piperidide; lactam N-11) | 100 to 500
CCCOC[C@H]1C(=O)N(C)CC(=O)N[C@@H](CCc2ccc(C(F)(F)F)c(F)c2)C(=O)N2CCC[C@H]2C(=O)NC2(CCCC2)C(=O)N(C)[C@@H]([C@@H](C)CC)C(=O)N(C)[C@H](C(=O)N2C3CCC2COC3)CC(=O)N(C)[C@@H](CC(C)C)C(=O)N[C@@H]([C@@H](C)CC)C(=O)N(C)[C@@H](C)C(=O)N2CC[C@H]2C(=O)N1C [Compound 408] ([NMeL]I[NMeA][Aze][NMeS](Propyl)[Sar][hPhe(3-F,4-CF3)]P[Ac5c][NMeI][NMeD]-{3Oxa8azabicyclo(3.2.1)octane}; lactam N-11) | 50 to 100

Source: patent publication US12371454B2, “Cyclic peptide compound having Kras inhibitory action” (priority 2019, dated 2025)
